In general, EC50 refers to the concentration giving half of the maximal effect.

human NAMPT, sequence (P43490 whole entry): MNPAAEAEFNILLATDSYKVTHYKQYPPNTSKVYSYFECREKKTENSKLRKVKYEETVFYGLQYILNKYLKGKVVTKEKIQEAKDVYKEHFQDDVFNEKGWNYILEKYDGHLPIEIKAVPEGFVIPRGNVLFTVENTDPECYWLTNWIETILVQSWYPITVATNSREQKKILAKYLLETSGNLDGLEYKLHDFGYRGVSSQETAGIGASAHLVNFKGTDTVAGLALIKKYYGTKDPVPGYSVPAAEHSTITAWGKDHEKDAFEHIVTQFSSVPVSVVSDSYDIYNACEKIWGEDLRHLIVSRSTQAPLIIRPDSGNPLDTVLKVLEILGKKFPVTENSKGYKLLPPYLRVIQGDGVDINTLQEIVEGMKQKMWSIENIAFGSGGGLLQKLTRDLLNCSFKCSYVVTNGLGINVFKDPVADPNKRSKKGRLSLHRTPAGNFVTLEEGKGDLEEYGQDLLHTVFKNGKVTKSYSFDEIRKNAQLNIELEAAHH

In this assay the target is human NAMPT (Homo sapiens (Human), UniProt P43490). Description: NMN fluorescence biochemical assay (human recombinant NAMPT enzyme assay). The procedure:
Compounds described herein were assayed for their ability to stimulate the synthesis of nicotinamide mononucleotide (NMN) by the enzyme NAMPT. The human recombinant enzyme assay measures the activation of the enzyme activity by compounds using recombinant enzyme and substrates in a buffered cell-free system. The assay conditions closely mimic cellular environments. Dose responses were measured using an assay to detect the formation of nicotinamide mono-nucleotide. All experiments were performed in the 384-well format. Generally, 0.5 μL of DMSO containing varying concentrations of the test compound was mixed with 10 μL of the enzyme reagent solution. Enzyme reactions were initiated with the addition of […] containing the substrates. The final assay conditions were as follows: 6 nM human NAMPT, 2.5 mM ATP, 20 μM PRPP and 150 μM nicotinamide in 50 mM HEPES, pH 7.2, 1 mM DTT, 1 mM CHAPS 50 mM NaCl, 100 mM MgCl2. Following an incubation of 60 min at ambient temperature, 10 μL of 20% acetophenone in DMSO was added, followed by 10 μL of 2 M KOH and 40 μL of formic acid. The plates were read for fluorescence (Excitation/Emission=355 nm/460 nm) using an EnVision plate reader after 40 mins of incubation at ambient temperature.
On to `COc1ccc(COC(=O)Nc2ccc(CC3CCN(C4COC4)CC3)cc2)cc1` [Compound 67, 4-methoxybenzyl (4-((1-(oxetan-3-yl)piperidin-4-yl)methyl)phenyl)carbamate], for which the “AC1.4 Human” value was found to be 0.59 µM and the EC50 turned out to be 21.3 µM.
`C[C@H](NC(=O)[C@@H]1C[C@@H]2[C@H](C1)C2(F)F)c1ccc(NC(=O)OCc2cnco2)cc1` [Compound 68, 1,3-oxazol-5-ylmethyl N-{4-[(1S)-1-{[(1R,3s,5S)-6,6-difluorobicyclo[3.1.0]hexan-3-yl]formamido}ethyl]phenyl}carbamate]: the “AC1.4 Human” value was 0.59 µM and the EC50 came to 11.1 µM.
On the same counts, the results for `CN(Cc1ccc(NC(=O)OCc2ccc(Cl)cc2)cc1)C(=O)c1cn[nH]c1F` [Compound 69, (4-chlorophenyl)methyl N-(4-{[1-(3-fluoro-2H-pyrazol-4-yl)-N-methylformamido]methyl}phenyl)carbamate] are 0.59 µM and 3.07 µM.
Take `CN(Cc1ccc(NC(=O)OCc2ccc(Cl)cc2)cc1)C(=O)c1n[nH]cc1F` [Compound 71, (4-chlorophenyl)methyl N-(4-{[1-(4-fluoro-1H-pyrazol-3-yl)-N-methylformamido]methyl}phenyl)carbamate]: the “AC1.4 Human” value was 0.61 µM and the EC50 is 2.51 µM.
For `COC1CCN(C(=O)N[C@@H](C)c2ccc(NC(=O)OCc3ccc(Cl)cc3)cc2)CC1` [Compound 72, 4-chlorobenzyl (S)-(4-(1-(4-methoxypiperidine-1-carboxamido)ethyl)phenyl)carbamate], the “AC1.4 Human” value was 0.62 µM and the EC50 stood at 5.27 µM.
The like results for `O=C(Nc1ccc(CN2CCN(c3ncccn3)CC2)cc1)OCc1ccc(Cl)cc1` [Compound 73, 4-chlorobenzyl (4-((4-(pyrimidin-2-yl)piperazin-1-yl)methyl)phenyl)carbamate] were, in that order, 0.62 µM and 1.76 µM.
On the same counts, the results for `CN(Cc1ccc(NC(=O)OCc2ccc(Cl)cc2)cc1)C(=O)c1ccnn1C1CCC1` [Compound 74, (4-chlorophenyl)methyl N-(4-{[1-(2-cyclobutylpyrazol-3-yl)-N-methylformamido]methyl}phenyl)carbamate] are 0.64 µM and 1.42 µM.
For the compound `C[C@H](NC(=O)C1CC(F)(F)C1)c1ccc(NC(=O)OCc2cnco2)cc1` [Compound 75, 1,3-oxazol-5-ylmethyl N-{4-[(1S)-1-[(3,3-difluorocyclobutyl)formamido]ethyl]phenyl}carbamate], the “AC1.4 Human” value worked out at 0.64 µM and the concentration giving a half-maximal response (EC50) is 26.3 µM.
As for `CCc1ccc(C(=O)N[C@@H](C)c2ccc(NC(=O)OCc3ccc(Cl)cc3)cc2)cn1` [Compound 76, (4-chlorophenyl)methyl N-{4-[(1S)-1-[(6-ethylpyridin-3-yl)formamido]ethyl]phenyl}carbamate], the “AC1.4 Human” value was found to be 0.64 µM and the EC50 is 0.89 µM.
As for `COCCn1nccc1C(=O)N(C)Cc1ccc(NC(=O)OCc2ccc(Cl)cc2)cc1` [Compound 77, (4-chlorophenyl)methyl N-[4-({1-[2-(2-methoxyethyl)pyrazol-3-yl]-N-methylformamido}methyl)phenyl]carbamate], the “AC1.4 Human” value is 0.65 µM and the EC50 amounted to 1.67 µM.
Regarding `O=C(Nc1ccc(CNC(=O)c2ccncc2F)cc1)OCc1ccc(Cl)cc1` [Compound 78, (4-chlorophenyl)methyl N-(4-{[(3-fluoropyridin-4-yl)formamido]methyl}phenyl)carbamate], the “AC1.4 Human” value turned out to be 0.65 µM and the EC50 stood at 7.44 µM.
Consider `CC(C)(C)OC(=O)N1CCC(Cc2ccc(NC(=O)OCc3cnco3)cc2)CC1` [Compound 79, tert-butyl 4-(4-(((oxazol-5-ylmethoxy)carbonyl)ami-no)benzyl)piperidine-1-carboxylate], for which the “AC1.4 Human” value stood at 0.66 µM and the 50% effective concentration (EC50) is 23.6 µM.

The record behind these values is patent US20240279215A1 (Cytokinetics, Incorporated, priority 2022, published 2024).
